The numbers were not newly measured in US20080004223A1, “DERMATOLOGICAL USES OF THE TRIPEPTIDE MELANOCYTE STIMULATING INHIBITORY FACTOR (MIF)” (priority 2006, published 2008), which cites them from elsewhere.

Read-outs that look alike come from different tables or passages of the source. Residues, ends and D or L forms follow the SMILES beside them. No end group written: not given here.

The conditions of series [1]: U.S. Pat. No. 4,278,595.
For series [2] the following is noted: rats; Petersson et al. 2004.
The conditions of series [3]: mice, modified Dopa test; U.S. Pat. No. 3,708,593.
The conditions of series [4]: water wheel test; Kastin et al. 1984.
The conditions of series [5]: rats; Pahdy et al. 2005.
The conditions of series [6]: rats; Petersson et al. 2001.
The conditions of series [7]: rats; Kastin et al. 1985.
The conditions of series [8]: rats; Hayashi et al. 1983, 1984.

With `CC(C)C[C@H](NC(=O)[C@@H]1CCCN1)C(=O)NCC(N)=O` [MIF, prolyl-leucyl-glycinamide] (H-Pro-Leu-Gly-NH2), the “metabolism subsequent to administration” value in series [1] is given as “rapidly metabolized”. For the same compound, in series [2], the oxytocin levels result is reported as “decreases oxytocin levels”. For the same compound, the antidepressant activity result in series [3] is “exhibits antidepressant activity”; in series [4], “active as antidepressants”.
On to `CC[C@H](C)[C@@H]1NC(=O)[C@H](Cc2ccc(O)cc2)NC(=O)[C@@H](N)CSSC[C@@H](C(=O)N2CCC[C@H]2C(=O)N[C@@H](CC(C)C)C(=O)NCC(N)=O)NC(=O)[C@H](CC(N)=O)NC(=O)[C@H](CCC(N)=O)NC1=O` [oxytocin], for which the latex-induced inflammatory hyperalgesia result in series [5] is reported as “inhibit Calotropis procera latex-induced inflammatory hyperalgesia”. Also, the carrageenan induced inflammation entry in series [6] was “decreases carrageenan induced inflammation”.
In the case of “Tyr-Pro-Leu-Gly-NH2 (YPLG-NH2) [Tyr-MIF-1, brain derived peptide]”, the “inhibition of the analgesic effect of morphine” value in series [7] is “active in inhibiting the analgesic effect of morphine”. Also, the “effect on passive avoidance” value in series [8] was “shown to affect passive avoidance”. In addition, in series [4], the antidepressant activity result was “active as antidepressants”.
